Values joined by “and” are separate entries in the source; they are usually repeats but may differ in a detail not shown here. Equal values may be shown once.
Experiments:
Assay type in all cases: in vivo, mouse
[1] = system: IL-1β; assay: CDAHFD mice: IL-1β immunohistochemical staining; set-up: IL-1β immunohistochemical staining (IL1b area), individual mouse / IL-1β immunohistochemical staining (IL1b area), Average: unit not given here; settings: for IL-1β immunohistochemical staining (IL1b area), Average / IL-1β immunohistochemical staining (IL1b area), individual mouse: CDAHFD mice; for IL-1β immunohistochemical staining (IL1b area), Average: group average n=4, CDAHFD+Vehicle 8.870, Vehicle 2.958; for IL-1β immunohistochemical staining (IL1b area), individual mouse: individual animals No. 1-4 (Fig.4h)
Text: (§1) C57BL/6 J male mice were purchased from the Japan SLC. Inc (Hamamatsu, Japan). Mice (5 weeks old) were fed Teklad Certitied Irradiated Global 18% protein rodent diet purchased from Dooyeol Biotech Co. Ltd (Seoul, South Korea) during the acclimation period. The liver fibrosis/inflammation-induced groups were CDAHFD-fed (A06071302, Research diet). […] All animal experiments complied with the relevant ethical regulations.
(§2) Mouse liver tissues were fixed in 4% formalin solution (Sigma–Aldrich, St. Louis, MO, USA) and embedded in paraffin. 4-μm-thick liver sections were deparaffinized in xylene, and rehydrated through descending grades of ethanol. To evaluate liver fibrosis, sections were stained with Sirius red solution and subjected to immunohistochemical staining. Tissue sections, after deparaffinization, underwent a 16-hour incubation in a solution containing 0.1% Direct Red 80 (365548, Sigma-Aldrich) dissolved in Picric acid (P-201, Spectrum Chemical, CA, USA) for Sirius red staining. The sections were briefly immersed in a 0.01 N HCl solution (1129, Ducksan, Republic of Korea) for 2 min. and then rinsed with distilled water for destaining. Subsequently, the sections underwent dehydration through […] grades of ethanol. Immunohistochemical staining was performed using the Polyview Plus HRP-DAB (anti-Rabbit) Kit (ENZ-KIT159-0150, ENZO Life Science, NY, USA) following the manufacturers’ instructions. Deparaffinized sections were boiled in IHC-TekTM Epitope Retrieval solution (IW-1100, IHCWORLD, MD, USA) for 45 min., cooled for 1 h, incubated in a 3% H2O2 solution (69355-0350, JUNSEI, Japan) for 15 min., washed, and then incubated overnight with primary antibodies (α-SMA, ab5694, Abcam, 1:500 dilution; TNF-α, ab6671, Abcam, 1:100 dilution and IL-1β, ab9722, Abcam, 1:100 dilution). Subsequently, the sections were treated with Polyview Plus HRP for 2 h and developed with DAB chromogen/substrate. Stained […] sections were confirmed by light microscopy (Olympus BX53 upright microscope, Tokyo, Japan). The degree of hepatic fibrosis and immunohistochemical staining was quantified by morphometric analysis of stained liver sections using NIH ImageJ software.

[2] = system: CDAHFD-fed C57BL/6 J mice; assay: CDAHFD mice: Sirius red staining (fibrotic area);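 on Sirius red staining (fibrotic area), individual mouse: percent of liver section area positive for Sirius red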; set-up: Sirius red staining (fibrotic area), individual mouse / Sirius red staining (fibrotic area), Average: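 percent of liver section area positive for Sirius red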; settings: for Sirius red staining (fibrotic area), Average / Sirius red staining (fibrotic area), individual mouse: CDAHFD mice; for Sirius red staining (fibrotic area), Average: group average n=5, CDAHFD+Vehicle 5.533, Vehicle 0.905; for Sirius red staining (fibrotic area), individual mouse: individual animals No. 1-5 (Fig.4e)
Text: as §1, §2

[3] = system: HFD-fed C57BL/6J mice; assay: DIO mice: intraperitoneal glucose tolerance test (IPGTT); set-up: Mean Diff. (Vehicle vs. 11c), GTT blood glucose / Mean 2 (11c group), GTT blood glucose: unit not given here; settings: for Mean Diff. (Vehicle vs. 11c), GTT blood glucose: Dunnett's multiple comparisons test; for Significant? (Vehicle vs. 11c), GTT blood glucose: Dunnett's test, alpha 0.05; for Mean 2 (11c group), GTT blood glucose: test details, mixed-effects model; for Blood Glucose Level 0 min / Blood Glucose Level 15 min / Blood Glucose Level 30 min / Blood Glucose Level 60 min / Blood Glucose Level 90 min / Blood Glucose Level 120 min / Blood Glucose Level AUC: GTT, PO
Experimental: For the glucose tolerance test, overnight fasted mice were intraperitoneally injected with 2 g/kg D-glucose (Sigma-Aldrich). Glucose concentrations were measured using a Gluco DR. TOP glucometer (Allmedicus). The AUC (area under the curve) during the GTT was calculated using GraphPad Prism 8.0 software (La Jolla, CA, USA) by the trapezoidal method.

[4] = CDAHFD-fed 11c vs CDAHFD-fed vehicle group

Cc1nc2n(c(=O)c1CCN1CCC(=C3c4ccc(Cl)cc4CCc4cccnc43)CC1)CCCC2O (centres unmarked) [Compound 11c]
IL-1β immunohistochemical staining (IL1b area), Average ([1]; 11c 5 mpk): 4.503 | IL-1β immunohistochemical staining (IL1b area), individual mouse ([1]; 11c 5 mpk): 6.500 and 6.265 and 2.688 and 2.559 | IL-1β immunohistochemical staining (IL1b area), Average ([1]; 11c 10mpk): 3.142 | IL-1β immunohistochemical staining (IL1b area), individual mouse ([1]; 11c 10mpk): 2.228 and 4.531 and 2.370 and 3.440 | IL-1β expression (immunohistochemical staining) [1, 4]: significant decrease | Sirius red staining (fibrotic area), Average ([2]; 11c 5 mpk): 3.015 | Sirius red staining (fibrotic area), individual mouse ([2]; 11c 5 mpk): 3.008 and 1.579 and 3.604 and 3.231 and 3.651 | Sirius red staining (fibrotic area), Average ([2]; 11c 10mpk): 3.818 | Sirius red staining (fibrotic area), individual mouse ([2]; 11c 10mpk): 2.883 and 3.981 and 4.409 and 4.507 and 3.312 | collagen accumulation in liver tissue (Sirius red staining) [2, 4]: significant decrease | Mean Diff. (Vehicle vs. 11c), GTT blood glucose ([3]; 5mpk, 0 min): 17.89 | Significant? (Vehicle vs. 11c), GTT blood glucose ([3]; 5mpk, 0 min): No | Mean 2 (11c group), GTT blood glucose ([3]; 5mpk, 0 min): 206.4 | Mean Diff. (Vehicle vs. 11c), GTT blood glucose ([3]; 5mpk, 15 min): -1.429 | Significant? (Vehicle vs. 11c), GTT blood glucose ([3]; 5mpk, 15 min): No | Mean 2 (11c group), GTT blood glucose ([3]; 5mpk, 15 min): 542.4 | Mean Diff. (Vehicle vs. 11c), GTT blood glucose ([3]; 5mpk, 30 min): 41.17 | Significant? (Vehicle vs. 11c), GTT blood glucose ([3]; 5mpk, 30 min): No | Mean 2 (11c group), GTT blood glucose ([3]; 5mpk, 30 min): 575 | Mean Diff. (Vehicle vs. 11c), GTT blood glucose ([3]; 5mpk, 60 min): 150 | Significant? (Vehicle vs. 11c), GTT blood glucose ([3]; 5mpk, 60 min): Yes | Mean 2 (11c group), GTT blood glucose ([3]; 5mpk, 60 min): 473.2 | Mean Diff. (Vehicle vs. 11c), GTT blood glucose ([3]; 5mpk, 90 min): 176.5 | Significant? (Vehicle vs. 11c), GTT blood glucose ([3]; 5mpk, 90 min): Yes | Mean 2 (11c group), GTT blood glucose ([3]; 5mpk, 90 min): 359.1 | Mean Diff. (Vehicle vs. 11c), GTT blood glucose ([3]; 5mpk, 120 min): 168.6 | Significant? (Vehicle vs. 11c), GTT blood glucose ([3]; 5mpk, 120 min): Yes | Mean 2 (11c group), GTT blood glucose ([3]; 5mpk, 120 min): 270.4 | Glucose tolerance ([3]; 5 or 10 mpk, DIO mice): improved | Mean Diff. (Vehicle vs. 11c), GTT blood glucose ([3]; 10mpk, 0 min): 40.33 | Significant? (Vehicle vs. 11c), GTT blood glucose ([3]; 10mpk, 0 min): No | Mean 2 (11c group), GTT blood glucose ([3]; 10mpk, 0 min): 183.9 | Mean Diff. (Vehicle vs. 11c), GTT blood glucose ([3]; 10mpk, 15 min): 13.5 | Significant? (Vehicle vs. 11c), GTT blood glucose ([3]; 10mpk, 15 min): No | Mean 2 (11c group), GTT blood glucose ([3]; 10mpk, 15 min): 527.5 | Mean Diff. (Vehicle vs. 11c), GTT blood glucose ([3]; 10mpk, 30 min): 33.08 | Significant? (Vehicle vs. 11c), GTT blood glucose ([3]; 10mpk, 30 min): No | Mean Diff. (Vehicle vs. 11c), GTT blood glucose ([3]; 10mpk, 60 min): 136.4 | Significant? (Vehicle vs. 11c), GTT blood glucose ([3]; 10mpk, 60 min): No | Mean 2 (11c group), GTT blood glucose ([3]; 10mpk, 60 min): 486.8 | Mean Diff. (Vehicle vs. 11c), GTT blood glucose ([3]; 10mpk, 90 min): 180.6 | Significant? (Vehicle vs. 11c), GTT blood glucose ([3]; 10mpk, 90 min): Yes | Mean Diff. (Vehicle vs. 11c), GTT blood glucose ([3]; 10mpk, 120 min): 191.3 | Significant? (Vehicle vs. 11c), GTT blood glucose ([3]; 10mpk, 120 min): Yes | Mean 2 (11c group), GTT blood glucose ([3]; 10mpk, 120 min): 247.7 | Blood Glucose Level 0 min ([3]; DIO mice, 5mpk, 0 min, group mean): 206.4 mg/dL | Blood Glucose Level 0 min ([3]; DIO mice, 5mpk, 0 min, individual animals, 5 mg/kg): 241.0 mg/dL and 220.5 mg/dL and 182.0 mg/dL and 211.0 mg/dL and 157.0 mg/dL and 205.0 mg/dL and 228.0 mg/dL | Blood Glucose Level 15 min ([3]; DIO mice, 5mpk, 15 min, group mean): 542.4 mg/dL | Blood Glucose Level 15 min ([3]; DIO mice, 5mpk, 15 min, individual animals, 5 mg/kg): 629.0 mg/dL and 541.0 mg/dL and 509.0 mg/dL and 553.5 mg/dL and 596.5 mg/dL and 427.0 mg/dL | Blood Glucose Level 30 min ([3]; DIO mice, 5mpk, 30 min, group mean): 575.0 mg/dL | Blood Glucose Level 30 min ([3]; DIO mice, 5mpk, 30 min, individual animals, 5 mg/kg): 662.5 mg/dL and 628.5 mg/dL and 650.5 mg/dL and 617.5 mg/dL and 539.5 mg/dL and 470.5 mg/dL and 456.0 mg/dL | Blood Glucose Level 60 min ([3]; DIO mice, 5mpk, 60 min, group mean): 473.2 mg/dL | Blood Glucose Level 60 min ([3]; DIO mice, 5mpk, 60 min, individual animals, 5 mg/kg): 526.0 mg/dL and 500.0 mg/dL and 631.5 mg/dL and 438.0 mg/dL and 309.5 mg/dL and 481.5 mg/dL and 426.0 mg/dL | Blood Glucose Level 90 min ([3]; DIO mice, 5mpk, 90 min, group mean): 359.1 mg/dL | Blood Glucose Level 90 min ([3]; DIO mice, 5mpk, 90 min, individual animals, 5 mg/kg): 412.0 mg/dL and 393.0 mg/dL and 445.5 mg/dL and 295.0 mg/dL and 202.0 mg/dL and 352.0 mg/dL and 414.5 mg/dL | Blood Glucose Level 120 min ([3]; DIO mice, 5mpk, 120 min, group mean): 270.4 mg/dL | Blood Glucose Level 120 min ([3]; DIO mice, 5mpk, 120 min, individual animals, 5 mg/kg): 297.0 mg/dL and 295.0 mg/dL and 358.5 mg/dL and 219.0 mg/dL and 181.0 mg/dL and 242.5 mg/dL and 299.5 mg/dL | Blood Glucose Level AUC ([3]; DIO mice, 5mpk, group mean): 26885.0 mg·min/dL | Blood Glucose Level 0 min ([3]; DIO mice, 10mpk, 0 min, group mean): 183.9 mg/dL | Blood Glucose Level 0 min ([3]; DIO mice, 10mpk, 0 min, individual animals, 10 mg/kg): 113.5 mg/dL and 200.5 mg/dL and 204.0 mg/dL and 222.5 mg/dL and 179.0 mg/dL and 184.0 mg/dL | Blood Glucose Level 15 min ([3]; DIO mice, 10mpk, 15 min, group mean): 527.5 mg/dL | Blood Glucose Level 15 min ([3]; DIO mice, 10mpk, 15 min, individual animals, 10 mg/kg): 483.5 mg/dL and 423.0 mg/dL and 498.0 mg/dL and 646.0 mg/dL and 555.0 mg/dL and 559.5 mg/dL | Blood Glucose Level 30 min ([3]; DIO mice, 10mpk, 30 min, group mean): 591.4 mg/dL | Blood Glucose Level 30 min ([3]; DIO mice, 10mpk, 30 min, individual animals, 10 mg/kg): 550.5 mg/dL and 531.0 mg/dL and 653.0 mg/dL and 657.0 mg/dL and 577.0 mg/dL and 580.0 mg/dL | Blood Glucose Level 60 min ([3]; DIO mice, 10mpk, 60 min, group mean): 486.8 mg/dL | Blood Glucose Level 60 min ([3]; DIO mice, 10mpk, 60 min, individual animals, 10 mg/kg): 370.0 mg/dL and 458.5 mg/dL and 558.0 mg/dL and 603.0 mg/dL and 357.5 mg/dL and 574.0 mg/dL | Blood Glucose Level 90 min ([3]; DIO mice, 10mpk, 90 min, group mean): 365.9 mg/dL | Blood Glucose Level 90 min ([3]; DIO mice, 10mpk, 90 min, individual animals, 10 mg/kg): 283.5 mg/dL and 422.0 mg/dL and 442.0 mg/dL and 440.5 mg/dL and 227.0 mg/dL and 380.5 mg/dL | Blood Glucose Level 120 min ([3]; DIO mice, 10mpk, 120 min, group mean): 247.7 mg/dL | Blood Glucose Level 120 min ([3]; DIO mice, 10mpk, 120 min, individual animals, 10 mg/kg): 170.0 mg/dL and 260.5 mg/dL and 387.0 mg/dL and 315.5 mg/dL and 148.5 mg/dL and 204.5 mg/dL | Blood Glucose Level AUC ([3]; DIO mice, 10mpk, group mean): 28219.0 mg·min/dL

Reference: PMC10799935, “Discovery of a peripheral 5HT2A antagonist as a clinical candidate for metabolic dysfunction-associated steatohepatitis” (Nature Communications, 2024)
